# ChEMBL document CHEMBL1201861, “Genomics of Drug Sensitity in Cancer screening data, Wellcome Trust Sanger Institute”
# Tests used:
# Experiment in all cases: cells
# Details in all cases: Homo sapiens
# RH-1 = type: functional, cell-based;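 note: growth inhibition of human RH-1 cells, read out with a cell viability assay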
# Description: SANGER: Inhibition of human RH-1 cell growth in a cell viability assay.
# EW-16 = type: functional, cell-based;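 note: growth inhibition of human EW-16 cells, read out as cell viability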
# Description: SANGER: Inhibition of human EW-16 cell growth in a cell viability assay.
# ETK-1 = type: functional, cell-based;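 note: growth inhibition of human ETK-1 cells, read out with a cell viability assay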
# Description: SANGER: Inhibition of human ETK-1 cell growth in a cell viability assay.
# NB10 = type: functional, cell-based;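 note: growth inhibition of NB10 cells, read out by a cell viability assay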
# Description: SANGER: Inhibition of human NB10 cell growth in a cell viability assay.
# A704 = type: functional, cell-based;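 note: growth inhibition of human A704 cells, read out with a cell viability assay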
# Description: SANGER: Inhibition of human A704 cell growth in a cell viability assay.
# TE-1 = type: functional, cell-based
# Description: SANGER: Inhibition of human TE-1 cell growth in a cell viability assay.
# EW-11 = type: functional, cell-based;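 note: growth inhibition of human EW-11 cells, measured with a cell viability assay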
# Description: SANGER: Inhibition of human EW-11 cell growth in a cell viability assay.
# EW-3 = type: functional, cell-based;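 note: cell viability assay read-out, IC50 reflects inhibition of growth of the EW-3 cells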
# Description: SANGER: Inhibition of human EW-3 cell growth in a cell viability assay.
# D-263MG = type: functional, cell-based
# Description: SANGER: Inhibition of human D-263MG cell growth in a cell viability assay.
# GI-1 = type: functional, cell-based;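 note: growth inhibition of human GI-1 cells, measured with a cell viability readout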
# Description: SANGER: Inhibition of human GI-1 cell growth in a cell viability assay.
# Lu-65 = type: functional, cell-based;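 note: growth inhibition of Lu-65 cancer cells, read out by a cell viability assay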
# Description: SANGER: Inhibition of human LU-65 cell growth in a cell viability assay.
# J-RT3-T3-5 = type: functional, cell-based;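 note: cell viability assay measuring growth inhibition of human J-RT3-T3-5 cells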
# Description: SANGER: Inhibition of human J-RT3-T3-5 cell growth in a cell viability assay.
# SBC-1 = type: functional, cell-based;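 note: cell viability assay measuring growth inhibition of the SBC-1 cell line, IC50 being the concentration that halves growth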
# Description: SANGER: Inhibition of human SBC-1 cell growth in a cell viability assay.
# TE-5 = type: functional, cell-based;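 note: inhibition of cell growth, read out by a cell viability assay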
# Description: SANGER: Inhibition of human TE-5 cell growth in a cell viability assay.
# GAK = type: functional, cell-based;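 note: cell growth inhibition read out by a cell viability assay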
# Description: SANGER: Inhibition of human GAK cell growth in a cell viability assay.
# TE-12 = type: functional, cell-based;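 note: growth inhibition of TE-12 cells, read out by a cell viability assay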
# Description: SANGER: Inhibition of human TE-12 cell growth in a cell viability assay.
# COLO-800 = type: functional, cell-based;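 note: growth inhibition of COLO-800 cells, read out with a cell viability assay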
# Description: SANGER: Inhibition of human COLO-800 cell growth in a cell viability assay.
# SNU1 = type: functional, cell-based;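 note: growth inhibition of human NCI-SNU-1 cells, measured with a cell viability assay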
# Description: SANGER: Inhibition of human NCI-SNU-1 cell growth in a cell viability assay.
# QIMR-WIL = type: functional, cell-based;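 note: growth inhibition of QIMR-WIL cells, read out with a cell viability assay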
# Description: SANGER: Inhibition of human QIMR-WIL cell growth in a cell viability assay.
# KE-37 = type: functional, cell-based;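 note: growth inhibition of KE-37 cells, read out with a cell viability assay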
# Description: SANGER: Inhibition of human KE-37 cell growth in a cell viability assay.
# HEL = type: functional, cell-based;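 note: growth inhibition of HEL cells, read out with a cell viability assay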
# Description: SANGER: Inhibition of human HEL cell growth in a cell viability assay.
# SF-126 = type: functional, cell-based;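 note: growth inhibition of human SF126 cells, read out with a cell viability assay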
# Description: SANGER: Inhibition of human SF126 cell growth in a cell viability assay.
# C2BBe1 = type: functional, cell-based;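 note: growth inhibition of C2BBe1 cells, read out through a viability assay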
# Description: SANGER: Inhibition of human C2BBe1 cell growth in a cell viability assay.
# IST-MEL1 = type: functional, cell-based;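 note: growth inhibition of the cell line, read out with a cell viability assay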
# Description: SANGER: Inhibition of human IST-MEL1 cell growth in a cell viability assay.
# LNCaP-Clone-FGC = type: functional, cell-based
# Description: SANGER: Inhibition of human LNCaP-Clone-FGC cell growth in a cell viability assay.
# NEC8 = type: functional, cell-based;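 note: growth inhibition of human NEC8 cells, read out by a cell viability assay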
# Description: SANGER: Inhibition of human NEC8 cell growth in a cell viability assay.
# SCH = type: functional, cell-based;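 note: growth inhibition of human SCH cells, read out in a cell viability assay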
# Description: SANGER: Inhibition of human SCH cell growth in a cell viability assay.
# HAL-01 = type: functional, cell-based;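 note: growth inhibition of human HAL-01 cells, read out with a cell viability assay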
# Description: SANGER: Inhibition of human HAL-01 cell growth in a cell viability assay.
# SK-MEL-2 = type: functional, cell-based;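 note: growth inhibition of human SK-MEL-2 cells measured with a cell viability assay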
# Description: SANGER: Inhibition of human SK-MEL-2 cell growth in a cell viability assay.
# NOS-1 = type: functional, cell-based;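 note: growth inhibition of the human NOS-1 cell line, read out with a cell viability assay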
# Description: SANGER: Inhibition of human NOS-1 cell growth in a cell viability assay.
# HCC2218 = type: functional, cell-based;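 note: cell viability assay read-out, with IC50 given as the concentration that inhibits growth of the cell line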
# Description: SANGER: Inhibition of human HCC2218 cell growth in a cell viability assay.
# MPP-89 = type: functional, cell-based;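 note: growth inhibition of human MPP-89 cells, read out with a cell viability assay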
# Description: SANGER: Inhibition of human MPP-89 cell growth in a cell viability assay.
# EKVX = type: functional, cell-based;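 note: growth inhibition of human EKVX cells, read out with a cell viability assay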
# Description: SANGER: Inhibition of human EKVX cell growth in a cell viability assay.
# AM-38 = type: functional, cell-based;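 note: growth inhibition of AM-38 cells of human origin, read out by a cell viability assay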
# Description: SANGER: Inhibition of human AM-38 cell growth in a cell viability assay.
# no-11 = type: functional, cell-based;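 note: growth inhibition of human NO-11 cells, read out with a cell viability assay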
# Description: SANGER: Inhibition of human no-11 cell growth in a cell viability assay.
# SW684 = type: functional, cell-based;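 note: growth inhibition of human SW684 cells, measured by a cell viability assay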
# Description: SANGER: Inhibition of human SW684 cell growth in a cell viability assay.
# HD-MY-Z = type: functional, cell-based;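 note: growth inhibition of HD-MY-Z cells, read out with a cell viability assay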
# Description: SANGER: Inhibition of human HD-MY-Z cell growth in a cell viability assay.
# SW872 = type: functional, cell-based;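 note: growth inhibition of SW872 cells, read out by a viability assay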
# Description: SANGER: Inhibition of human SW872 cell growth in a cell viability assay.
# SW 954 = type: functional, cell-based;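 note: growth inhibition of SW954 human cancer cells, read out as cell viability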
# Description: SANGER: Inhibition of human SW954 cell growth in a cell viability assay.
# ES8 = type: functional, cell-based;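 note: growth inhibition of human ES8 cells, read out with a cell viability assay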
# Description: SANGER: Inhibition of human ES8 cell growth in a cell viability assay.
# NCI-H23 = type: functional, cell-based;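 note: cell viability assay measuring growth inhibition of NCI-H23 cells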
# Description: SANGER: Inhibition of human NCI-H23 cell growth in a cell viability assay.
# KNS-81-FD = type: functional, cell-based;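 note: growth inhibition of KNS-81-FD cells, read out with a cell viability assay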
# Description: SANGER: Inhibition of human KNS-81-FD cell growth in a cell viability assay.
# SHP77 = type: functional, cell-based, SHP-77;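 note: growth inhibition of human SHP-77 cells measured by a cell viability assay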
# Description: SANGER: Inhibition of human SHP-77 cell growth in a cell viability assay.
# K5 = type: functional, cell-based
# Description: SANGER: Inhibition of human K5 cell growth in a cell viability assay.
# COR-L88 = type: functional, cell-based;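 note: growth inhibition of COR-L88 cells, read out with a cell viability assay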
# Description: SANGER: Inhibition of human COR-L88 cell growth in a cell viability assay.
# LAMA-84 = type: functional, cell-based;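 note: growth inhibition of LAMA-84 cells, read out with a cell viability assay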
# Description: SANGER: Inhibition of human LAMA-84 cell growth in a cell viability assay.
# ES6 = type: functional, cell-based;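 note: growth inhibition of human ES6 cells, read out with a cell viability assay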
# Description: SANGER: Inhibition of human ES6 cell growth in a cell viability assay.
# SH-4 = type: functional, cell-based;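 note: growth inhibition of SH-4 cells, read out with a cell viability assay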
# Description: SANGER: Inhibition of human SH-4 cell growth in a cell viability assay.
# KU812 cell line = type: functional, cell-based;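 note: growth inhibition of KU812 cells, read out with a cell viability assay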
# Description: SANGER: Inhibition of human KU812 cell growth in a cell viability assay.
# A498 = type: functional, cell-based;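 note: growth inhibition of human A498 cells, read out with a cell viability assay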
# Description: SANGER: Inhibition of human A498 cell growth in a cell viability assay.
# IST-MES1 = type: functional, cell-based;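 note: growth inhibition of IST-MES1 cells, measured with a cell viability assay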
# Description: SANGER: Inhibition of human IST-MES1 cell growth in a cell viability assay.
# COLO-824 = type: functional, cell-based
# Description: SANGER: Inhibition of human COLO-824 cell growth in a cell viability assay.
# DOHH-2 = type: functional, cell-based;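 note: growth inhibition of human DOHH-2 cells, read out with a cell viability assay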
# Description: SANGER: Inhibition of human DOHH-2 cell growth in a cell viability assay.
# TGBC1TKB = type: functional, cell-based;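 note: growth inhibition of TGBC1TKB cells, read out by a cell viability assay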
# Description: SANGER: Inhibition of human TGBC1TKB cell growth in a cell viability assay.
# EW-13 = type: functional, cell-based
# Description: SANGER: Inhibition of human EW-13 cell growth in a cell viability assay.
# U-87 MG = type: functional, cell-based, U-87MG ATCC
# Description: SANGER: Inhibition of human U-87-MG cell growth in a cell viability assay.
# no-10 = type: functional, cell-based
# Description: SANGER: Inhibition of human no-10 cell growth in a cell viability assay.
# MHH-NB-11 = type: functional, cell-based
# Description: SANGER: Inhibition of human MHH-NB-11 cell growth in a cell viability assay.
# HDLM-2 = type: functional, cell-based
# Description: SANGER: Inhibition of human HDLM-2 cell growth in a cell viability assay.
# NCI-H747 = type: functional, cell-based
# Description: SANGER: Inhibition of human NCI-H747 cell growth in a cell viability assay.
# COLO-684 = type: functional, cell-based
# Description: SANGER: Inhibition of human COLO-684 cell growth in a cell viability assay.
# ATN-1 = type: functional, cell-based
# Description: SANGER: Inhibition of human ATN-1 cell growth in a cell viability assay.
# NCI-H1770 = type: functional, cell-based
# Description: SANGER: Inhibition of human NCI-H1770 cell growth in a cell viability assay.
# KM-H2 = type: functional, cell-based
# Description: SANGER: Inhibition of human KM-H2 cell growth in a cell viability assay.
# NCI-H69 = type: functional, cell-based
# Description: SANGER: Inhibition of human NCI-H69 cell growth in a cell viability assay.
# COLO-668 = type: functional, cell-based
# Description: SANGER: Inhibition of human COLO-668 cell growth in a cell viability assay.
smiles,measurement,setting,value
CCNc1cc(N[C@H]2CC[C@@H](O)CC2)nc(Nc2ccc3c(ccn3Cc3ccccc3)c2)n1,IC50,RH-1,> 5.12 µM
same,IC50,EW-16,> 5.12 µM
same,IC50,ETK-1,0.242 µM
same,IC50,NB10,> 5.12 µM
same,IC50,A704,> 5.12 µM
same,IC50,TE-1,> 5.12 µM
same,IC50,EW-11,> 5.12 µM
same,IC50,EW-3,> 5.12 µM
same,IC50,D-263MG,> 5.12 µM
same,IC50,GI-1,2.95 µM
same,IC50,Lu-65,> 5.12 µM
same,IC50,J-RT3-T3-5,> 5.12 µM
same,IC50,SBC-1,> 5.12 µM
same,IC50,TE-5,> 5.12 µM
same,IC50,GAK,> 5.12 µM
same,IC50,TE-12,5.05 µM
same,IC50,COLO-800,> 5.12 µM
same,IC50,SNU1,> 5.12 µM
same,IC50,QIMR-WIL,> 5.12 µM
same,IC50,KE-37,> 5.12 µM
same,IC50,HEL,> 5.12 µM
same,IC50,SF-126,> 5.12 µM
same,IC50,C2BBe1,> 5.12 µM
same,IC50,IST-MEL1,> 5.12 µM
same,IC50,LNCaP-Clone-FGC,> 5.12 µM
same,IC50,NEC8,> 5.12 µM
same,IC50,SCH,> 5.12 µM
same,IC50,HAL-01,> 5.12 µM
same,IC50,SK-MEL-2,> 5.12 µM
same,IC50,NOS-1,3.26 µM
same,IC50,HCC2218,> 5.12 µM
same,IC50,MPP-89,> 5.12 µM
same,IC50,EKVX,> 5.12 µM
same,IC50,AM-38,> 5.12 µM
same,IC50,no-11,> 5.12 µM
same,IC50,SW684,> 5.12 µM
same,IC50,HD-MY-Z,> 5.12 µM
same,IC50,SW872,> 5.12 µM
same,IC50,SW 954,> 5.12 µM
same,IC50,ES8,> 5.12 µM
same,IC50,NCI-H23,> 5.12 µM
same,IC50,KNS-81-FD,> 5.12 µM
same,IC50,SHP77,> 5.12 µM
same,IC50,K5,> 5.12 µM
same,IC50,COR-L88,> 5.12 µM
same,IC50,LAMA-84,> 5.12 µM
same,IC50,ES6,> 5.12 µM
same,IC50,SH-4,3.31 µM
same,IC50,KU812 cell line,> 5.12 µM
same,IC50,A498,> 5.12 µM
same,IC50,IST-MES1,> 5.12 µM
same,IC50,COLO-824,> 5.12 µM
same,IC50,DOHH-2,3.46 µM
same,IC50,TGBC1TKB,> 5.12 µM
same,IC50,EW-13,> 5.12 µM
same,IC50,U-87 MG,> 5.12 µM
same,IC50,no-10,> 5.12 µM
same,IC50,MHH-NB-11,> 5.12 µM
same,IC50,HDLM-2,> 5.12 µM
same,IC50,NCI-H747,> 5.12 µM
same,IC50,COLO-684,> 5.12 µM
same,IC50,ATN-1,> 5.12 µM
same,IC50,NCI-H1770,5.08 µM
same,IC50,KM-H2,> 5.12 µM
same,IC50,NCI-H69,> 5.12 µM
same,IC50,COLO-668,> 5.12 µM
COc1cc(C)c(Sc2cnc(NC(=O)c3ccc(CNC(C)C(C)(C)C)cc3)s2)cc1C(=O)N1CCN(C(C)=O)CC1 (configuration not stated),IC50,RH-1,> 10.2 µM
same,IC50,EW-16,1.72 µM
same,IC50,ETK-1,2.24 µM
same,IC50,NB10,> 10.2 µM
same,IC50,A704,> 10.2 µM
same,IC50,TE-1,> 10.2 µM
same,IC50,EW-11,> 10.2 µM
same,IC50,EW-3,8.57 µM
same,IC50,D-263MG,> 10.2 µM
same,IC50,GI-1,> 10.2 µM
same,IC50,Lu-65,> 10.2 µM
same,IC50,J-RT3-T3-5,> 10.2 µM
same,IC50,SBC-1,> 10.2 µM
same,IC50,TE-5,> 10.2 µM
same,IC50,GAK,> 10.2 µM
same,IC50,TE-12,2.42 µM
same,IC50,COLO-800,> 10.2 µM
same,IC50,SNU1,> 10.2 µM
same,IC50,QIMR-WIL,10.1 µM
same,IC50,KE-37,> 10.2 µM
same,IC50,HEL,> 10.2 µM
same,IC50,SF-126,> 10.2 µM
same,IC50,C2BBe1,> 10.2 µM
same,IC50,IST-MEL1,> 10.2 µM
same,IC50,LNCaP-Clone-FGC,> 10.2 µM
same,IC50,NEC8,> 10.2 µM
same,IC50,SCH,> 10.2 µM
same,IC50,HAL-01,> 10.2 µM
same,IC50,SK-MEL-2,> 10.2 µM
same,IC50,NOS-1,1.3 µM
same,IC50,HCC2218,> 10.2 µM
same,IC50,MPP-89,> 10.2 µM
same,IC50,EKVX,> 10.2 µM
same,IC50,AM-38,> 10.2 µM
same,IC50,no-11,> 10.2 µM
same,IC50,SW684,> 10.2 µM
same,IC50,HD-MY-Z,9.44 µM
same,IC50,SW872,> 10.2 µM
same,IC50,SW 954,7.79 µM
same,IC50,ES8,> 10.2 µM
same,IC50,NCI-H23,> 10.2 µM
same,IC50,KNS-81-FD,> 10.2 µM
same,IC50,SHP77,> 10.2 µM
same,IC50,K5,> 10.2 µM
same,IC50,COR-L88,> 10.2 µM
same,IC50,LAMA-84,> 10.2 µM
same,IC50,ES6,2.12 µM
same,IC50,SH-4,2.49 µM
same,IC50,KU812 cell line,8.97 µM
same,IC50,A498,> 10.2 µM
same,IC50,IST-MES1,> 10.2 µM
same,IC50,COLO-824,> 10.2 µM
same,IC50,DOHH-2,> 10.2 µM
same,IC50,TGBC1TKB,> 10.2 µM
same,IC50,EW-13,> 10.2 µM
same,IC50,U-87 MG,> 10.2 µM
same,IC50,no-10,> 10.2 µM
same,IC50,MHH-NB-11,> 10.2 µM
same,IC50,HDLM-2,> 10.2 µM
same,IC50,NCI-H747,3.86 µM
same,IC50,COLO-684,> 10.2 µM
same,IC50,ATN-1,9.51 µM
same,IC50,NCI-H1770,> 10.2 µM
same,IC50,KM-H2,> 10.2 µM
same,IC50,NCI-H69,> 10.2 µM
same,IC50,COLO-668,> 10.2 µM
